Source: ChEMBL document CHEMBL4765420, “Design, synthesis and biological evaluation of novel HDAC inhibitors with improved pharmacokinetic profile in breast cancer” (Eur J Med Chem, 2020)
Activity calls are given as the source filed them. No cut-off for these calls is given here.

What was measured:
[1] = molecular target: T1, Protein deacetylase HDAC6 (Homo sapiens) (UniProt Q9UBN7); assay: Inhibition of HDAC6 in human MDA-MB-231 cells assessed as increase in alpha-tubulin acetylation at 2.5 to 10 uM measured after 24 hrs by Western blot analysis; format: cell-based; details: dose 2.5-10 µM
T1 sequence (whole entry): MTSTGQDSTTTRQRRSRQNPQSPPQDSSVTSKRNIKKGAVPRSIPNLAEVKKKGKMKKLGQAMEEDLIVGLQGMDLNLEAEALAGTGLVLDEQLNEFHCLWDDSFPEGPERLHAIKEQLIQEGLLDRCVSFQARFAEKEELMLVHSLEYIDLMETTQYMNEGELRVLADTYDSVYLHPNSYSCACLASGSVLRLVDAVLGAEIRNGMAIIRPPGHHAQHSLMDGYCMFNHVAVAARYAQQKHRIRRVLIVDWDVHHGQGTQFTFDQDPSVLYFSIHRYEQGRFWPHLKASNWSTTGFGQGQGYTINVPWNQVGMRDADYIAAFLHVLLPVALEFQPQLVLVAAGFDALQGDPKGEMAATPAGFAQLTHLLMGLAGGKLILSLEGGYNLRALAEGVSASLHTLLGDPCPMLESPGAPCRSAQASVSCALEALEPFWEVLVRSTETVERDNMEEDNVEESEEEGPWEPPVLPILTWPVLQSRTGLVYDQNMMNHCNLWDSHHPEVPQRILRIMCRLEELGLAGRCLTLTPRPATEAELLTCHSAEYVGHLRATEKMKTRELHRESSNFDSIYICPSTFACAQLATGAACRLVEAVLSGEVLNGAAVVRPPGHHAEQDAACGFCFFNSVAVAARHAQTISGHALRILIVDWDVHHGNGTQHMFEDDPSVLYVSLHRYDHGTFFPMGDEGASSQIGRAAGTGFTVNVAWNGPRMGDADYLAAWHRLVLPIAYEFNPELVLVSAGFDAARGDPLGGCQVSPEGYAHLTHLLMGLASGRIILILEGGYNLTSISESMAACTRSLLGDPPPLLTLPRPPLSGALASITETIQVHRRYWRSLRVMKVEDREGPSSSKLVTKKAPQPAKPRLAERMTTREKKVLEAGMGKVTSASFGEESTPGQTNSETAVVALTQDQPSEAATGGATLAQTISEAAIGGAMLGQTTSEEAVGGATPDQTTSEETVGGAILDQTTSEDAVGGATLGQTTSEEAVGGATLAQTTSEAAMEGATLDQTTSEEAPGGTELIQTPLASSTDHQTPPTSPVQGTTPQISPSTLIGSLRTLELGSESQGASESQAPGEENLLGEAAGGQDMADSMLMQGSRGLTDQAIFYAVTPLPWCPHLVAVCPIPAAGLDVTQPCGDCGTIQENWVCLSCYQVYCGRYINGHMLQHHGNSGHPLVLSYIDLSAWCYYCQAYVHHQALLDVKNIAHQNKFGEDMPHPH

[2] = tested on: MDA-MB-231; assay: Induction of apoptosis in human MDA-MB-231 cells assessed as viable cells at 2.5 uM measured after 24 hrs by Annexin-V/propidium iodide staining based flow cytometry (reference value: 95.68 to 98.38%); format: functional; details: read-out: Activity
[3] = tested on: MDA-MB-231; assay: Induction of apoptosis in human MDA-MB-231 cells assessed as increase in cleaved caspase-8 expression at 2.5 to 10 uM measured after 24 hrs by Western blot analysis; format: functional, cell-based; details: dose 2.5-10 µM
[4] = tested on: MDA-MB-231; assay: Antiproliferative activity against human MDA-MB-231 cells measured after 24 hrs by MTT assay; format: functional, cell-based; details: MDA-MB-231, 24 h
[5] = molecular target: T2, Histone deacetylase 8 (Homo sapiens, UniProt Q9BY41); assay: Inhibition of recombinant human full-length C-terminal His-tagged HDAC8 expressed in baculovirus infected Sf9 insect cells using Ac-Leu-Gly-Lys(Tfa)-AMC as substrate measured after 30 mins by fluorescence assay
T2 sequence (Q9BY41 whole entry): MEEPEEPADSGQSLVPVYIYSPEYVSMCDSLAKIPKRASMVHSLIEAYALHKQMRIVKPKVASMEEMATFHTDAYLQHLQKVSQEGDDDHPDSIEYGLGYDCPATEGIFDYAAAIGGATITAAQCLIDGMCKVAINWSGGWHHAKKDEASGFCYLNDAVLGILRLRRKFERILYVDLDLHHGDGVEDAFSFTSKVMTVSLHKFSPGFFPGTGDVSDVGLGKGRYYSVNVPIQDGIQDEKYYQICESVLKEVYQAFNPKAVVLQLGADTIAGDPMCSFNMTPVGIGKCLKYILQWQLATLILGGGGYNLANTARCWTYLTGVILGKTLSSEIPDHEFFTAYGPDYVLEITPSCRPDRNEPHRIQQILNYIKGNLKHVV

[6] = molecular target: T3, Histone deacetylase 7 (Homo sapiens, UniProt Q8WUI4); assay: Inhibition of HDAC7 (unknown origin) using AcLeu-Gly-Lys(Tfa)-AMC as substrate measured after 30 mins by fluorescence assay
T3 sequence (Q8WUI4 whole entry): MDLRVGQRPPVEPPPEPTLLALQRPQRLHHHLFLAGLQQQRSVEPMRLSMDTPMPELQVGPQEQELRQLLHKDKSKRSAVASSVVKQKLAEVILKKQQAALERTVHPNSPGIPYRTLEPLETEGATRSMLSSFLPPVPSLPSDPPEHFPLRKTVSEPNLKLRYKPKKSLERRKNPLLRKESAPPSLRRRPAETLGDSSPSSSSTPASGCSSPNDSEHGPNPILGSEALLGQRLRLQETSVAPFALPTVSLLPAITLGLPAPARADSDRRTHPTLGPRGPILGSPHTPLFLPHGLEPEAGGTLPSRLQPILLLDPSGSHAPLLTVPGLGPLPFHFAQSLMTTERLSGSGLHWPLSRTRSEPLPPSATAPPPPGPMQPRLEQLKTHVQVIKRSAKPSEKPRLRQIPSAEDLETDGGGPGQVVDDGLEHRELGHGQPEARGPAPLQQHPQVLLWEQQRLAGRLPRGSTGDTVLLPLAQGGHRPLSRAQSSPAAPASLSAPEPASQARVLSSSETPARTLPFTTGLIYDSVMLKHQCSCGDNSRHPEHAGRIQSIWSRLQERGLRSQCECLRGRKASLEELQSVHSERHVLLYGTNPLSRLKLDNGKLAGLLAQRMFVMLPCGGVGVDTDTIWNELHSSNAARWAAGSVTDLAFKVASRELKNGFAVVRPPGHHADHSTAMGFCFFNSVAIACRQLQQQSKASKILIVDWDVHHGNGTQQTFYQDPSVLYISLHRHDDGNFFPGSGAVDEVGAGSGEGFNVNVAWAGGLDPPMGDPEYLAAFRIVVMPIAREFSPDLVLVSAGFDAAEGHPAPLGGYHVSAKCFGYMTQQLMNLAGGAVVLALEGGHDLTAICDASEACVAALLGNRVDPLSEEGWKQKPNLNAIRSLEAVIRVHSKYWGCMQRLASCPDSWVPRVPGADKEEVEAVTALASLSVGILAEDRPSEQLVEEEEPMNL

COc1cc(OC)c2c(N3CCS(=O)(=O)CC3)nc(-c3cc(C)c(OCCCCCC(=O)NO)c(C)c3)nc2c1
inhibition [1]: Active | viability at 2.5 µM [2]: 84.2% | Activity [3]: Active | IC50 [4]: 2370 nM | IC50 [5]: 404 nM | IC50 [6]: > 1000 nM
